In patent publication US10799507B2, “5-(7H-pyrrolo[2,3-d]pyrimidin-4-yl)-5-azaspiro[2.5]octane-8-carboxylic acid derivatives as novel JAK kinase inhibitors” (LEO Pharma A/S, priority 2017, dated 2020):
pEC50: −log10 of the molar value.

Experiments:
Type in all cases: biochemical
JAK1 = JAK1 (Homo sapiens (Human), UniProt P23458); assay: JAK kinase assay (HTRF), JAK1; conditions: catalytic domain, ATP at Km (7 μM)
Description: (§1) Human baculovirus-expressed JAK1, 2, 3 and TYK2 were purchased from Carna Biosciences, Inc. All four purified enzymes contain only the catalytic domain. JAK1 (aa 850-1154) and TYK2 (aa 871-1187) are expressed with an N-terminally fused GST-tag, and JAK2 and JAK3 with an N-terminally fused His-tag.
(§2) Inhibition of phosphorylation of a synthetic peptide was measured in an HTRF-based assay using the TK substrate-Biotin from the Cisbio HTRFKinEASE TK kit. First, 2 μl of TK solution (TK substrate-biotin in kinase buffer [1× enzymatic buffer from HTRFKinEASE TK kit, 1 mM DTT]) is added to a plate containing 1 μl prediluted compound (final assay concentration DMSO: 0.75%). Then, 5 μl kinase-ATP mix (prepared in kinase buffer) is added to the wells and the plates are incubated at RT for 20-30 min. For all four kinases a concentration of ATP that corresponded to the Km for ATP was used. The final concentrations of buffers, substrate, kinase and ATP were: JAK1: 50 mM Hepes buffer pH 7.0, 0.01% BSA, 10 mM MgCl2, 1 mM DTT, 7 μM ATP, 50 nM SEB, 1 μM TK Substrate-Biotin and 5 ng JAK1; JAK2: 50 mM Hepes buffer pH 7.0, 0.01% BSA, 5 mM MgCl2, 1 mM DTT, 4 μM ATP, 1 μM TK Substrate-Biotin and 0.1 ng JAK2; JAK3: 50 mM Hepes buffer pH 7.0, 0.01% BSA, 5 mM MgCl2, 1 mM DTT, 2 μM ATP, 1 μM TK Substrate-Biotin and 0.3 ng JAK3; TYK2: 50 mM Hepes buffer pH 7.0, 0.01% BSA, 5 mM MgCl2, 1 mM DTT, 13 μM ATP, 50 nM SEB, 1 μM TK Substrate-Biotin and 0.8 ng TYK2. Thereafter, the kinase reaction is stopped by adding 4 μl detection mix (final concentrations: 50 mM Hepes buffer pH 7.0, 0.01% BSA, 0.8 M KF, 20 mM EDTA, 42 nM Streptavidin-XL665 and 1:400 STK Ab Cryptate) and the plates are incubated overnight in the dark. The HTRF signal is read using an Envision plate reader.

JAK2 = JAK2 (Homo sapiens (Human), UniProt O60674); assay: JAK kinase assay (HTRF), JAK2; conditions: catalytic domain, ATP at Km (4 μM)
Description: as §1, §2

JAK3 = JAK3 (Homo sapiens (Human), UniProt P52333); assay: JAK kinase assay (HTRF), JAK3; conditions: catalytic domain, ATP at Km (2 μM)
Description: as §1, §2
(§3) In Table 1 selected JAK kinase inhibitory activities are listed along with analytical tR and observed M+H^+ data (UPLC-MS method 7).

TYK2 = TYK2 (Homo sapiens (Human), UniProt P29597); assay: JAK kinase assay (HTRF), TYK2; conditions: catalytic domain, ATP at Km (13 μM)
Description: as §1, §2, §3

Sequence of JAK3 (P52333 822-1111): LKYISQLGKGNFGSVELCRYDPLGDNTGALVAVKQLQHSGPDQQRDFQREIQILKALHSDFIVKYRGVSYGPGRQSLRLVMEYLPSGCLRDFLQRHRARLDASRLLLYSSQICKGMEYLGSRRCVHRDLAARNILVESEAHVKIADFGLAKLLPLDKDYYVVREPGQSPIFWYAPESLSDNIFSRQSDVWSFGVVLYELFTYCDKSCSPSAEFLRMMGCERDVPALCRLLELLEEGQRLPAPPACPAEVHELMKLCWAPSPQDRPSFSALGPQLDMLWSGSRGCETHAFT
Sequence of TYK2 (P29597 871-1187): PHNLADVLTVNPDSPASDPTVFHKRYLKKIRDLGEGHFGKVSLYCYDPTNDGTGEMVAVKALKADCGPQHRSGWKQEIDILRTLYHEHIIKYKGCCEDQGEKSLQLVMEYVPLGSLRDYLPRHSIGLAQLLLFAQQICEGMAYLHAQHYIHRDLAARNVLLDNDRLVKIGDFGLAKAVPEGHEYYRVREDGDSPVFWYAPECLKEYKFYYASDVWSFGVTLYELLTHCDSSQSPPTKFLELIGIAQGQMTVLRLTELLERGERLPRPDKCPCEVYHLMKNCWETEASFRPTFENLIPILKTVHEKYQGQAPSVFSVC
Sequence of JAK1 (P23458 850-1154): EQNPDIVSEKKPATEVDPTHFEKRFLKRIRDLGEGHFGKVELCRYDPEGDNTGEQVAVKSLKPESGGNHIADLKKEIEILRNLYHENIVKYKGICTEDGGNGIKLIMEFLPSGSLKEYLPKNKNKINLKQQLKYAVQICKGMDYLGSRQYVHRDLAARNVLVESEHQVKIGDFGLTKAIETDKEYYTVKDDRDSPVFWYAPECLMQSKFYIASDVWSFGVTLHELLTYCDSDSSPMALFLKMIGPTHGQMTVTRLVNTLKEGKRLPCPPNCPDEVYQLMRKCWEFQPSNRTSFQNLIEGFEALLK
Sequence of JAK2 (O60674 849-1124): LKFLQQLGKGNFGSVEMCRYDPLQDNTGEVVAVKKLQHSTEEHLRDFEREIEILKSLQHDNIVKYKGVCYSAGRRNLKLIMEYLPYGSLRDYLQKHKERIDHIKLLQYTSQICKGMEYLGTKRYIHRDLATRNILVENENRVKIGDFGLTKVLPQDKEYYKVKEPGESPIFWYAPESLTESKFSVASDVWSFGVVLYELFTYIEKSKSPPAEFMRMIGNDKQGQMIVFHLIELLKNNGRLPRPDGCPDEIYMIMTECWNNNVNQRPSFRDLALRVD

Row | SMILES | pEC50 (JAK1) | pEC50 (JAK2) | pEC50 (JAK3) | pEC50 (TYK2)
1 | C[C@H](NC(=O)[C@H]1CCN(c2ncnc3[nH]ccc23)CC12CC2)[C@H](O)c1ccc(C#N)cc1 [Example 126, (8S)-N-[(1S,2R)-2-(4-cyanophenyl)-2-hydroxy-1-methyl-ethyl]-5-(7H-pyrrolo[2,3-d]pyrimidin-4-yl)-5-azaspiro[2.5]octane-8-carboxamide] | 7.71 | 7.59 | 7.53 | 6.01
2 | N#Cc1ccc([C@H](O)CNC(=O)[C@@H]2CCN(c3ncnc4[nH]ccc34)CC23CC3)cc1 [Example 142, (8R)-N-[(2S)-2-(4-cyanophenyl)-2-hydroxy-ethyl]-5-(7H-pyrrolo[2,3-d]pyrimidin-4-yl)-5-azaspiro[2.5]octane-8-carboxamide] | 7.37 | 6.75 | 6.56 | 
3 | C[C@H](NC(=O)[C@H]1CCN(c2ncnc3[nH]ccc23)CC12CC2)[C@@H](O)c1ccccc1 [Example 152, (8S)-N-[(1S,2S)-2-hydroxy-1-methyl-2-phenyl-ethyl]-5-(7H-pyrrolo[2,3-d]pyrimidin-4-yl)-5-azaspiro[2.5]octane-8-carboxamide] | 8.57 |  | 8.24 | 7.56
4 | C[C@H](NC(=O)[C@H]1CCN(c2ncnc3[nH]ccc23)CC12CC2)[C@@H](O)c1cccc(F)c1 [Example 150, (8S)-N-[(1S,2S)-2-(3-fluorophenyl)-2-hydroxy-1-methyl-ethyl]-5-(7H-pyrrolo[2,3-d]pyrimidin-4-yl)-5-azaspiro[2.5]octane-8-carboxamide] | 8.57 |  | 8.51 | 7.68
5 | O=C(OCc1ccccc1)[C@H](CO)NC(=O)[C@H]1CCN(c2ncnc3[nH]ccc23)CC12CC2 [Example 138, Benzyl (2S)-3-hydroxy-2-[[(8S)-5-(7H-pyrrolo[2,3-d]pyrimidin-4-yl)-5-azaspiro[2.5]octane-8-carbonyl]amino]propanoate] | 7.42 | 6.95 | 7.04 | 5.96
6 | COc1cc(F)ccc1[C@H](CO)NC(=O)[C@H]1CCN(c2ncnc3[nH]ccc23)CC12CC2 [Example 109, (8S)-N-[(1R)-1-(4-fluoro-2-methoxy-phenyl)-2-hydroxy-ethyl]-5-(7H-pyrrolo[2,3-d]pyrimidin-4-yl)-5-azaspiro[2.5]octane-8-carboxamide] | 7.98 | 7.61 | 6.95 | 6.61
7 | C[C@H](NC(=O)[C@H]1CCN(c2ncnc3[nH]ccc23)CC12CC2)[C@H](O)c1ccc(F)cn1 [Example 107, (8S)-N-[(1S,2S)-2-(5-fluoro-2-pyridyl)-2-hydroxy-1-methyl-ethyl]-5-(7H-pyrrolo[2,3-d]pyrimidin-4-yl)-5-azaspiro[2.5]octane-8-carboxamide] | 7.99 | 7.84 | 7.24 | 6.90
8 | COc1cncc([C@@H](C)NC(=O)C2CCN(c3ncnc4[nH]ccc34)CC23CC3)c1 (stereo partly drawn) [Example 144, N-[(1R)-1-(5-methoxy-3-pyridyl)ethyl]-5-(7H-pyrrolo[2,3-d]pyrimidin-4-yl)-5-azaspiro[2.5]octane-8-carboxamide] | 7.31 | 7.09 | 6.80 | 
9 | O=C(N[C@H](CO)C1CCCCC1)[C@H]1CCN(c2ncnc3[nH]ccc23)CC12CC2 [Example 132, (8S)-N-[(1S)-1-cyclohexyl-2-hydroxy-ethyl]-5-(7H-pyrrolo[2,3-d]pyrimidin-4-yl)-5-azaspiro[2.5]octane-8-carboxamide] | 7.60 | 7.02 | 6.79 | 6.18
10 | O=C(N[C@H](CO)C(=O)OCC1CCCC1)[C@H]1CCN(c2ncnc3[nH]ccc23)CC12CC2 [Example 87, cyclopentylmethyl (2R)-3-hydroxy-2-[[(8S)-5-(7H-pyrrolo[2,3-d]pyrimidin-4-yl)-5-azaspiro[2.5]octane-8-carbonyl]amino]propanoate] | 8.14 | 7.59 | 7.37 | 6.91
11 | COc1cc(F)ccc1[C@@H](C)NC(=O)C1CCN(c2ncnc3[nH]ccc23)CC12CC2 (stereo partly drawn) [Example 131, N-[(1R)-1-(4-fluoro-2-methoxy-phenyl)ethyl]-5-(7H-pyrrolo[2,3-d]pyrimidin-4-yl)-5-azaspiro[2.5]octane-8-carboxamide] | 7.61 | 7.52 | 6.61 | 
12 | COc1cc([C@@H](C)NC(=O)C2CCN(c3ncnc4[nH]ccc34)CC23CC3)ccc1F (stereo partly drawn) [Example 143, N-[(1R)-1-(4-fluoro-3-methoxy-phenyl)ethyl]-5-(7H-pyrrolo[2,3-d]pyrimidin-4-yl)-5-azaspiro[2.5]octane-8-carboxamide] | 7.35 | 7.04 | 6.70 | 
13 | COc1ccc([C@H](C)NC(=O)C2CCN(c3ncnc4[nH]ccc34)CC23CC3)cc1 (stereo partly drawn) [Example 66, N-[(1S)-1-(4-methoxyphenyl)ethyl]-5-(7H-pyrrolo[2,3-d]pyrimidin-4-yl)-5-azaspiro[2.5]octane-8-carboxamide] | 8.32 | 8.08 | 7.39 | 
14 | C[C@@H](NC(=O)C1CCN(c2ncnc3[nH]ccc23)CC12CC2)c1ccc(F)c(C#N)c1 (stereo partly drawn) [Example 123, N-[(1R)-1-(3-cyano-4-fluoro-phenyl)ethyl]-5-(7H-pyrrolo[2,3-d]pyrimidin-4-yl)-5-azaspiro[2.5]octane-8-carboxamide] | 7.79 | 7.67 | 7.19 | 
15 | C[C@@H](NC(=O)C1CCN(c2ncnc3[nH]ccc23)CC12CC2)c1cccc(F)c1 (stereo partly drawn) [Example 134, N-[(1R)-1-(3-fluorophenyl)ethyl]-5-(7H-pyrrolo[2,3-d]pyrimidin-4-yl)-5-azaspiro[2.5]octane-8-carboxamide] | 7.48 | 7.09 | 6.77 | 
16 | N#Cc1cccc(CNC(=O)C2CCN(c3ncnc4[nH]ccc34)CC23CC3)c1 (stereo not drawn) [Example 70, N-[(3-cyanophenyl)methyl]-5-(7H-pyrrolo[2,3-d]pyrimidin-4-yl)-5-azaspiro[2.5]octane-8-carboxamide] | 8.26 | 8.07 | 7.49 | 
17 | C[C@H](NC(=O)[C@H]1CCN(c2ncnc3[nH]ccc23)CC12CC2)[C@@H](O)c1cccnc1 [Example 151, (8S)-N-[(1S,2S)-2-hydroxy-1-methyl-2-(3-pyridyl)ethyl]-5-(7H-pyrrolo[2,3-d]pyrimidin-4-yl)-5-azaspiro[2.5]octane-8-carboxamide] | 7.96 |  | 7.53 | 6.74
18 | CC(NC(=O)C1CCN(c2ncnc3[nH]ccc23)CC12CC2)c1ccc(F)cc1 (stereo not drawn) [Example 61, N-[1-(4-fluorophenyl)ethyl]-5-(7H-pyrrolo[2,3-d]pyrimidin-4-yl)-5-azaspiro[2.5]octane-8-carboxamide] | 8.37 | 8.14 | 7.66 | 
19 | C[C@@H](NC(=O)C1CCN(c2ncnc3[nH]ccc23)CC12CC2)c1ccc(F)c(F)c1 (stereo partly drawn) [Example 113, N-[(1R)-1-(3,4-difluorophenyl)ethyl]-5-(7H-pyrrolo[2,3-d]pyrimidin-4-yl)-5-azaspiro[2.5]octane-8-carboxamide] | 7.94 | 7.71 | 7.29 | 
20 | COc1ccc([C@@H](C)NC(=O)C2CCN(c3ncnc4[nH]ccc34)CC23CC3)cc1F (stereo partly drawn) [Example 124, N-[(1R)-1-(3-fluoro-4-methoxy-phenyl)ethyl]-5-(7H-pyrrolo[2,3-d]pyrimidin-4-yl)-5-azaspiro[2.5]octane-8-carboxamide] | 7.73 | 7.22 | 6.84 | 
21 | C[C@@H](NC(=O)C1CCN(c2ncnc3[nH]ccc23)CC12CC2)c1cccc(C#N)c1 (stereo partly drawn) [Example 117, N-[(1R)-1-(3-cyanophenyl)ethyl]-5-(7H-pyrrolo[2,3-d]pyrimidin-4-yl)-5-azaspiro[2.5]octane-8-carboxamide] | 7.91 | 7.67 | 7.13 | 
22 | COc1cccc([C@@H](C)NC(=O)C2CCN(c3ncnc4[nH]ccc34)CC23CC3)c1 (stereo partly drawn) [Example 139, N-[(1R)-1-(3-methoxyphenyl)ethyl]-5-(7H-pyrrolo[2,3-d]pyrimidin-4-yl)-5-azaspiro[2.5]octane-8-carboxamide] | 7.41 | 7.21 | 7.00 | 
